Measurements from US8871796B2, “Diaryl ether derivatives as notch sparing gamma secretase inhibitors” (Merck Sharp & Dohme Corp., priority 2009, dated 2014).
pIC50: −log10 of the molar value. Read-outs that look alike come from different tables or passages of the source.

Experiment: APP processing: AlphaLisa assay of secreted Aβ40 and Aβ42 from SP4CT cells
Format: cell-based
Conditions: Homo sapiens, SH-SY5Y cells expressing amyloid β protein (SP4CT cells)
Protocol: APP Processing (Assay Quantitates Secreted Aβ Analytes from Cell Lines):
The effect of compounds on the abundance of Aβ40 and Aβ42 peptides generated from SH-SY5Y cells expressing amyloid β protein (SP4CT cells) are determined by an AlphaLisa™ assay. Analogous to an ELISA assay, generation of […] AlphaLisa™ assay requires “donor” and “acceptor” beads to be brought in close proximity by specific antibody recognition of either Aβ40 or Aβ42 peptides. The assay is accomplished by removing media from compound-treated SP4CT cells to two different microplates, followed by the addition of donor beads conjugated with streptavidin binding a biotinylated anti-amyloid β monocolonal antibody (clone 4G8). Acceptor beads directly conjugated with anti-Aβ40 monoclonal antibody (G210) are added to one microplate and anti-Aβ42 monoclonal antibody (12F4) acceptor beads were added to the other. Abundance of Aβ40 and Aβ42 is directly proportional to the luminescent signal generated following excitation of donor beads by laser light.

[1] = read-out: IC50, inhibition of production of Aβ40 peptide
[2] = read-out: IC50, inhibition of production of Aβ42 peptide

Row | SMILES | pIC50 [1] | pIC50 [2]
1 | CCn1nc(-c2cccc(C(C)(C)NS(=O)(=O)CC3CCC3)c2)cc1Oc1ccc(C(F)(F)F)cc1 [Example 2, 1-cyclobutyl-N-[1-(3-{1-ethyl-5-[4-(trifluoromethyl)phenoxy]-1H-pyrazol-3-yl}phenyl)-1-methylethyl]methanesulfonamide] | > 6.70 | > 6.70
2 | CCn1nc(-c2cccc(C(C)(C)NS(=O)(=O)NCC(F)(F)F)c2)cc1Oc1ccc(C(F)(F)F)cc1 [Example 4, N-[1-(3-{1-ethyl-5-[4-(trifluoromethyl)phenoxy]-1H-pyrazol-3-yl}phenyl)-1-methylethyl]-N′-(2,2,2-trifluoroethyl)sulfamide] | > 6.70 | > 6.70
3 | CCCNS(=O)(=O)NC(C)(C)c1cccc(-c2cc(Oc3ccc(C(F)(F)F)cc3)n(CC)n2)c1 [Example 8, N-[1-(3-{1-ethyl-5-[4-(trifluoromethyl)phenoxy]-1H-pyrazol-3-yl}phenyl)-1-methylethyl]-N′-propylsulfamide] | > 6.70 | > 6.70
4 | CCn1nc(-c2cccc(C(C)(C)NS(=O)(=O)NC)c2)cc1Oc1ccc(C(F)(F)F)cc1 [Example 10, N-[1-(3-{1-ethyl-5-[4-(trifluoromethyl)phenoxy]-1H-pyrazol-3-yl}phenyl)-1-methylethyl]-N′-methylsulfamide] | > 6.70 | > 6.70
5 | CCn1nc(-c2cccc(C(C)(C)NS(=O)(=O)C3CC3)c2)cc1Oc1ccc(C(F)(F)F)cc1 [Example 12, N-[1-(3-{1-ethyl-5-[4-(trifluoromethyl)phenoxy]-1H-pyrazol-3-yl}phenyl)-1-methylethyl] cyclopropanesulfonamide] | > 6.70 | > 6.70
6 | CCn1nc(-c2cccc(C(C)(C)NS(=O)(=O)NC3CCCC3)c2)cc1Oc1ccc(C(F)(F)F)cc1 [Example 13, N-cyclopentyl-N′-[1-(3-{1-ethyl-5-[4-(trifluoromethyl)phenoxy]-1H-pyrazol-3-yl}phenyl)-1-methylethyl]sulfamide] | > 6.70 | > 6.70
7 | CCn1nc(-c2cc(F)cc(C(C)(C)NS(=O)(=O)CC(F)(F)F)c2)cc1Oc1ccc(C(F)(F)F)cc1 [Example 15, N-[1-(3-{1-ethyl-5-[4-(trifluoromethyl)phenoxy]-1H-pyrazol-3-yl}-5-fluorophenyl)-1-methylethyl]-2,2,2-trifluoraethanesulfonamide] | > 6.70 | > 6.70
8 | CCn1nc(Oc2ccc(C(F)(F)F)cc2)cc1-c1cccc(C(C)(C)NS(=O)(=O)NCC(C)C)c1 [Example 17, N-[1-(3-{1-ethyl-3-[4-(trifluoromethyl)phenoxy]-1H-pyrazol-5-yl}phenyl)-1-methylethyl]-N′-isobutylsulfamide] | > 6.70 | > 6.70
9 | CCn1nc(Oc2ccc(Cl)nc2)cc1-c1cccc(C(C)(C)NS(=O)(=O)CC(F)(F)F)c1 [Example 22, N-[1-(3-{3-[(6-chloropyridin-3-yl)oxy]-1-ethyl-1H-pyrazol-5-yl]phenyl)-1-methylethyl]-2,2,2-trifluoroethanesulfonamide] | > 6.70 | > 6.70
10 | CCn1nc(Oc2ccc(C(F)(F)F)cc2)cc1-c1cccc(C(C)(C)NS(=O)(=O)NC)c1 [Example 24, N-[1-(3-{1-ethyl-3-[4-(trifluoromethyl)phenoxy]-1H-pyrazol-5-yl}phenyl)-1-methylethyl]-N′-methylsulfamide] | > 6.70 | > 6.70
11 | CCn1nc(Oc2ccc(C(F)(F)F)cc2)cc1-c1cccc(C(C)(C)NS(=O)(=O)N2CCCC2)c1 [Example 26, N-[1-(3-{1-ethyl-3-[4-(trifluoromethyl)phenoxy]-1H-pyrazol-5-yl}phenyl)-1-methylethyl]pyrrolidine-1-sulfonamide] | > 6.70 | > 6.70
12 | CCn1nc(Oc2ccc(C(F)(F)F)cc2)cc1-c1cccc(C(C)(C)NS(=O)(=O)N2CCCCC2)c1 [Example 27, N-[1-(3-{1-ethyl-3-[4-(trifluoromethyl)phenoxy]-1H-pyrazol-5-yl}phenyl)-1 methylethyl]piperidine-1-sulfonamide] | > 6.70 | > 6.70
13 | CCn1nc(-c2cccc(C3(NS(=O)(=O)CC(F)(F)F)CC3)c2)cc1Oc1ccc(C(F)(F)F)cc1 [Example 28, N-[1-(3-{1-ethyl-5-[4-(trifluoromethyl)phenoxy]-1H-pyrazol-3-yl}phenyl)cyclopropyl]-2,2,2-trifluoroethanesulfonamide] | > 6.70 | > 6.70

Continued, values first:

Row | pIC50 [1] | pIC50 [2] | SMILES
14 | > 6.70 | > 6.70 | CCn1nc(-c2cccc(C(C)(C)NS(=O)(=O)CC(F)(F)F)c2)cc1Oc1ccc(C(F)(F)F)cc1 [Example 1, N-[1-(3-{1-ethyl-5-[4-(trifluoromethyl)phenoxy]-1H-pyrazol-3-yl}phenyl)-1-methylethyl]-2,2,2-trifluoroethanesulfonamide]
15 | > 6.70 | > 6.70 | CCn1nc(-c2cccc(C(C)(C)NS(=O)(=O)NC3CCC3)c2)cc1Oc1ccc(C(F)(F)F)cc1 [Example 3, N-cyclobutyl-N′-[1-(3-{1-ethyl-5-[4-(trifluoromethyl)phenoxy]-1H-pyrazol-3-y}phenyl)-1-methylethyl]sulfamide]
16 | > 6.70 | > 6.70 | CCn1nc(-c2cccc(C(C)(C)NS(=O)(=O)CC(F)(F)F)c2)cc1Oc1ccc(C(F)(F)F)cc1F [Example 5, N-[1-(3-{1-ethyl-5-[2-fluoro-4-(trifluoromethyl)phenoxy]-1H-pyrazol-3-yl}phenyl)-1-methylethyl]-2,2,2-trifluoroethanesulfonamide]
17 | > 6.70 | > 6.70 | CCn1nc(-c2cccc(C(C)(C)NS(=O)(=O)CC(F)(F)F)c2)cc1Oc1ccccc1F [Example 7, N-(1-{3-[1-ethyl-5-(2-fluorophenoxy)-1H-pyrazol-3-yl]phenyl}-1-methylethyl)-2,2,2-trifluoroethanesulfonamide]
18 | > 6.70 | > 6.70 | CCn1nc(-c2cccc(C(C)(C)NS(=O)(=O)NCC(C)C)c2)cc1Oc1ccc(C(F)(F)F)cc1 [Example 9, N-[1-(3-{1-ethyl-5-[4-(trifluoromethyl)phenoxy]-1H-pyrazol-3-yl}phenyl)-1-methylethyl]-N′-isobutylsulfamide]
19 | > 6.70 | > 6.70 | CCn1nc(-c2cccc(C(C)(C)NS(=O)(=O)N3CCCC3)c2)cc1Oc1ccc(C(F)(F)F)cc1 [Example 11, N-[1-(3-{1-ethyl-5-[4-(trifluoromethyl)phenoxy]-1H-pyrazol-3-yl}phenyl)-1-methylethyl]pyrrolidine-1-sulfonamide]
20 | > 6.70 | > 6.70 | CCn1nc(-c2cccc(C(C)(C)NS(=O)(=O)N(C)C)c2)cc1Oc1ccc(C(F)(F)F)cc1 [Example 14, N′-[1-(3-{1-ethyl-5-[4-(trifluoromethyl)phenoxy]-1H-pyrazol-3-yl}phenyl)-1-methylethyl]-N,N-dimethylsulfamide]
21 | > 6.70 | > 6.70 | CCn1nc(Oc2ccc(C(F)(F)F)cc2)cc1-c1cccc(C(C)(C)NS(=O)(=O)NC2CCC2)c1 [Example 16, N-cyclobutyl-N′-[1-(3-{1-ethyl-3-[4-(trifluoromethyl)phenoxy]-1H-pyrazol-5-yl}phenyl)-1-methylethyl]sulfamide]
22 | > 6.70 | > 6.70 | CCn1nc(Oc2ccc(C(F)(F)F)cc2)cc1-c1cccc(C(C)(C)NS(=O)(=O)NC2CCCC2)c1 [Example 18, N-cyclopentyl-N′-[1-(3-{1-ethyl-3-[4-(trifluoromethyl)phenoxy]-H-pyrazol-5-yl}phenyl)-1-methylethyl]sulfamide]
23 | > 6.70 | > 6.70 | CCn1nc(Oc2ccc(C(F)(F)F)cc2)cc1-c1cccc(C(C)(C)NS(=O)(=O)CC(F)(F)F)c1 [Example 20, N-[1-(3-{1-ethyl-3-[4-(trifluoromethyl)phenoxy]-1H-pyrazol-5-yl}phenyl)-1-methylethyl]-2,2,2-trifluoroethanesulfonamide]
24 | > 6.70 | > 6.70 | CCn1nc(Oc2ccc(C(F)(F)F)cc2F)cc1-c1cccc(C(C)(C)NS(=O)(=O)CC(F)(F)F)c1 [Example 21, N-[1-(3-{1-ethyl-3-[2-fluoro-4-(trifluoromethyl)phenoxy]-1H-pyrazol-5-yl}phenyl)-1-methylethyl]-2,2,2-trifluoroethanesulfonamide]
25 | > 6.70 | > 6.70 | CCCNS(=O)(=O)NC(C)(C)c1cccc(-c2cc(Oc3ccc(C(F)(F)F)cc3)nn2CC)c1 [Example 23, N-[1-(3-{1-ethyl-3-[4-(trifluoromethyl)phenoxy]-1H-pyrazol-5-yl}phenyl)-1-methylethyl]-N′-propylsulfamide]
26 | > 6.70 | > 6.70 | CCn1nc(Oc2ccc(C(F)(F)F)cc2)cc1-c1cccc(C(C)(C)NS(=O)(=O)N(C)C)c1 [Example 25, N′-[1-(3-{1-ethyl-3-[4-(trifluoromethyl)phenoxy]-1H-pyrazol-5-yl}phenyl)-1-methylethyl]-N,N-dimethylsulfamide]
27 | > 6.70 | > 6.70 | CCn1nc(Oc2ccc(C(F)(F)F)cc2)cc1-c1cccc(C2(NS(=O)(=O)NC3CCCC3)CC2)c1 [Example 29, N-cyclopentyl-N′-[1-(3-{1-ethyl-3-[4-(trifluoromethyl)phenoxy]-1H-pyrazol-5-yl}phenyl)cyclopropyl] sulfamide]
28 | > 6.70 | > 6.70 | CCn1nc(Oc2ccc(C(F)(F)F)cc2)cc1-c1cccc(C2(NS(=O)(=O)NCC(C)C)CC2)c1 [Example 30, N-[1-(3-{1-ethyl-3-[4-(trifluoromethyl)phenoxy]-1H-pyrazo1-5-yl}phenyl)cyclopropyl]-N′-isobutylsulfamide]
